Measurements from patent US20230303572A1, “18-MC SALT FORMS” (Mind Medicine, Inc., priority 2022, published 2023).
Structures can show the parent of a compound that is named as a salt.

What was measured:
[1] = Physical form stability on storage at RT, air drying or exposure to ambient conditions (XRPD); format: physicochemical
From the text: (§1) For XRPD analysis, a PANalytical Empyrean and X′ Pert3 X-ray powder diffract meter was used.

[2] = Relative thermodynamic stability of HCl salt forms (desolvation and form conversion data); format: physicochemical
Protocol: Starting from HCl salt materials with different forms, a total of 100 polymorph screening experiments was performed using different crystallization methods including salt formation by liquid vapor diffusion/slurry at elevated temperature, evaporation at RT/high temperatures, slurry and reverse anti-solvent addition at different temperatures, slow/crash cooling, polymer induced crystallization and grinding. All the resulting solids were isolated for XRPD test, and new forms were further characterized by TGA, DSC, ^1H NMR and HPLC/ IC.
An additional polymorph screening was performed for 18-MC HCl salt.

[3] = Heating experiments and VT-XRPD (N2 drying, heating, cooling back): form change; format: physicochemical; settings: for form conversion, summary statement: after desolvation
From the text: as §1

[4] = tested on: cocaine-seeking or "craving" behaviors; settings: animal model; cited from earlier work
[5] = tested on: substance use models (nicotine, alcohol, morphine, cocaine and methamphetamine); settings: animal studies; dosages as low as 10 mg/kg i.p.; cited from earlier work

| SMILES | form change after storage (XRPD) ([1]; storage at RT for ~3 days) | Form after desolvation ([2]; RT storage or heat to 100° C. under N2) | form change after N2 drying (VT-XRPD) ([3]; N2-drying for 20 min at 30° C.) | form conversion, summary statement [3] | form change after heating (XRPD/VT-XRPD) ([3]; heating to 100° C.) | form change after heating (VT-XRPD) ([3]; heating to 180° C. under N2 protection) | change after air drying ([1]; air drying at RT, time not stated) | Form after desolvation ([2]; solvates of HCl salt, form after desolvation) | form change after heating (XRPD) ([3]; heating to 150° C.) | effect on cue-induced cocaine-seeking [4] | effect on drug self-administration [5] |
| --- | --- | --- | --- | --- | --- | --- | --- | --- | --- | --- | --- |
| COCC[C@H]1CC2CN3CCc4c([nH]c5ccccc45)[C@](C(=O)OC)(C2)[C@H]13 [HCl salt Type M, 18-methoxycoronaridine] | extra peaks of HCl salt Type A | HCl salt Type A** | no form change | converted to HCl salt Type A | peaks of HCl salt Type A were observed | most diffraction peaks were consistent with HCl salt Type A with extra peak similar to HCl salt Type K | – | – | – | – | – |
| COCC[C@H]1CC2CN3CCc4c([nH]c5ccccc45)[C@](C(=O)OC)(C2)[C@H]13 [HCl salt Type S, 18-methoxycoronaridine] | – | – | – | converted to HCl salt Type A | – | – | turned to be gel like | HCl salt Type A | most diffraction peaks were consistent with HCl salt Type A | – | – |
| COCC[C@H]1CC2CN3CCc4c([nH]c5ccccc45)[C@](C(=O)OC)(C2)[C@H]13 [18-MC, 18-methoxycoronaridine] | – | – | – | – | – | – | – | – | – | attenuate effects of the environmental cues | significantly reduces drug self-administration |
